System: 743489-274-T-PDC complex spheroid viability
Test: Anticancer human tumor 743489-274-T-PDC patient-derived renal cell carcinoma cell line growth inhibition
Settings: for IC50: curve of first compound; for viability, T/C: stronger effect = lower value
In short: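 Complex spheroids of tumor cells with HUVEC and human MSCs, exposed to iadademstat combined with other agents. Each agent tested in half-log steps from near clinical Cmax (else 10 microM top), DMSO ≤0.25%.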

[1] = second compound 0.1 µM, first compound 0.0316 µM
[2] = second compound 0.1 µM, first compound 0.1 µM
[3] = second compound 0.1 µM, first compound 0.316 µM
[4] = second compound 0.1 µM, first compound 1 µM
[5] = second compound 0.1 µM, first compound 3.16 µM
[6] = second compound 0.1 µM, first compound 10 µM
[7] = second compound 0.316 µM, first compound 0.0316 µM
[8] = second compound 0.316 µM, first compound 0.1 µM
[9] = second compound 0.316 µM, first compound 0.316 µM
[10] = second compound 0.316 µM, first compound 1 µM
[11] = second compound 0.316 µM, first compound 3.16 µM
[12] = second compound 0.316 µM, first compound 10 µM
[13] = second compound 1 µM, first compound 0.0316 µM
[14] = second compound 1 µM, first compound 0.1 µM
[15] = second compound 1 µM, first compound 0.316 µM
[16] = second compound 1 µM, first compound 1 µM
[17] = second compound 1 µM, first compound 3.16 µM
[18] = second compound 1 µM, first compound 10 µM
[19] = second compound 3.16 µM, first compound 0.0316 µM
[20] = second compound 3.16 µM, first compound 0.1 µM
[21] = second compound 3.16 µM, first compound 0.316 µM
[22] = second compound 3.16 µM, first compound 1 µM
[23] = second compound 3.16 µM, first compound 3.16 µM
[24] = second compound 3.16 µM, first compound 10 µM
[25] = second compound 10 µM, first compound 0.0316 µM
[26] = second compound 10 µM, first compound 0.1 µM
[27] = second compound 10 µM, first compound 0.316 µM
[28] = second compound 10 µM, first compound 1 µM
[29] = second compound 10 µM, first compound 3.16 µM
[30] = second compound 10 µM, first compound 10 µM
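Note: spheroids exposed to compounds for 7 days before readout.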
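Throughout, for viability, T/C: 100% = DMSO vehicle control wells.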

| Compound | IC50 (second compound 0.1 µM) [µM] | IC50 (second compound 0.316 µM) [µM] | IC50 (second compound 1 µM) [µM] | IC50 (second compound 3.16 µM) [µM] | IC50 (second compound 10 µM) [µM] | viability, T/C [1] [%] | viability, T/C [2] [%] | viability, T/C [3] [%] | viability, T/C [4] [%] | viability, T/C [5] [%] | viability, T/C [6] [%] | viability, T/C [7] [%] | viability, T/C [8] [%] | viability, T/C [9] [%] | viability, T/C [10] [%] | viability, T/C [11] [%] | viability, T/C [12] [%] | viability, T/C [13] [%] | viability, T/C [14] [%] | viability, T/C [15] [%] | further results |
| --- | --- | --- | --- | --- | --- | --- | --- | --- | --- | --- | --- | --- | --- | --- | --- | --- | --- | --- | --- | --- | --- |
| CC1(C)CCC(CN2CCN(c3ccc(C(=O)NS(=O)(=O)c4ccc(NCC5CCOCC5)c([N+](=O)[O-])c4)c(Oc4cnc5[nH]ccc5c4)c3)CC2)=C(c2ccc(Cl)cc2)C1 + NC1CC1c1ccc(-c2cccc(O)c2)cc1 | > 10 | > 10 | > 10 | > 10 | > 10 | 90.8 | 119 | 106 | 110 | 122 | 117 | 107 | 120 | 112 | 110 | 119 | 120 | 105 | 102 | 117 | viability, T/C [16]: 130%; viability, T/C [17]: 113%; viability, T/C [18]: 107%; viability, T/C [19]: 103%; viability, T/C [20]: 104%; viability, T/C [21]: 111%; viability, T/C [22]: 109%; viability, T/C [23]: 121%; viability, T/C [24]: 94.8%; viability, T/C [25]: 109%; viability, T/C [26]: 103%; viability, T/C [27]: 128%; viability, T/C [28]: 111%; viability, T/C [29]: 113%; viability, T/C [30]: 95.3% |
| CC1COCCN1c1cc(C2(S(C)(=N)=O)CC2)nc(-c2ccnc3[nH]ccc23)n1 (stereo not given) + NC1CC1c1ccc(-c2cccc(O)c2)cc1 | > 10 | > 10 | > 10 | > 10 | > 10 | 94.6 | 103 | 92.3 | 94.6 | 74.4 | 68.3 | 99.5 | 96.6 | 99.6 | 101 | 90.1 | 73.3 | 89.6 | 101 | 104 | viability, T/C [16]: 95.1%; viability, T/C [17]: 76.4%; viability, T/C [18]: 70.8%; viability, T/C [19]: 107%; viability, T/C [20]: 114%; viability, T/C [21]: 97.4%; viability, T/C [22]: 102%; viability, T/C [23]: 75.3%; viability, T/C [24]: 66.6%; viability, T/C [25]: 114%; viability, T/C [26]: 102%; viability, T/C [27]: 104%; viability, T/C [28]: 110%; viability, T/C [29]: 74.7%; viability, T/C [30]: 70.8% |

From PubChem BioAssay AID1918942 (Molecular Pharmacology Branch, DTP, NCI, 2023)
